The target in the test is Human complement C1s enzyme (Homo sapiens (Human), UniProt P09871). Put plainly: Human C1s enzyme assay. It is filed as biochemical. The conditions noted are these: Human complement C1s enzyme 1.16 nM, substrate Z-L-Lys-SBzl 100 μM, assay of Example 3; read-out: IC50 (Stars). The essentials: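 Purified serum-derived human C1s (1.16 nM final) preincubated 5 min at room temperature with compound in 50 mM Tris, 1 M NaCl, pH 7.5. Z-L-Lys-SBzl thioester substrate and DTNB added (100 μM each, final); A405 read every 30 s for 30 min. IC50 from nonlinear regression of reaction rates against compound concentration.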
Sequence of Human complement C1s enzyme (P09871 438-688 limits assumed): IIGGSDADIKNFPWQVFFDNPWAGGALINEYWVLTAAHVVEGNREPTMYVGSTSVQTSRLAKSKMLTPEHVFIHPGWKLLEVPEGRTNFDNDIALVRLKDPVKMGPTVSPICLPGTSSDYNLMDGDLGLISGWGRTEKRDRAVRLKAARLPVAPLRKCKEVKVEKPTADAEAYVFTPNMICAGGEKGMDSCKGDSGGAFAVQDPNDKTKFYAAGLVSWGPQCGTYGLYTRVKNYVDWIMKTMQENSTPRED
Sequence of Human complement C1s enzyme (P09871 16-437 partner limits assumed): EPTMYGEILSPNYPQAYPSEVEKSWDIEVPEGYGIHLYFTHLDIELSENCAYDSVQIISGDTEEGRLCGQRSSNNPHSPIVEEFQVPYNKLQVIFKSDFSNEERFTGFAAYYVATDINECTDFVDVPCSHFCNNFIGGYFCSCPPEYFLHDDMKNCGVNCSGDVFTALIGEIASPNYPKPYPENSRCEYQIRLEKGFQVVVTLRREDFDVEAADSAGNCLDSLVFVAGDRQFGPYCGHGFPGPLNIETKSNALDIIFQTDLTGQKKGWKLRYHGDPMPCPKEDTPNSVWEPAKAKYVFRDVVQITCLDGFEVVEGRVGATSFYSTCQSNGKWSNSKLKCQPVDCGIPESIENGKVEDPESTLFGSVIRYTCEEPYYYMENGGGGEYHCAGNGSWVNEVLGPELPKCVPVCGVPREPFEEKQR
With `C[C@@H](NC(=O)[C@@H]1CC2(CN1C(=O)CNC(=O)c1ccc(O)cc1)OCCO2)c1cc(C(=N)N)cs1` [Compound 272, (S)—N—((R)-1-(4-carbamimidoylthiophen-2-yl)ethyl)-7-((4-hydroxybenzoyl)glycyl)-1,4-dioxa-7-azaspiro[4.4]nonane-8-carboxamide], the concentration for half-maximal inhibition (IC50) (usually the concentration that gives 50% inhibition) is below 100 nM. Turning to `N=C(N)c1csc(CNC(=O)[C@@H]2CC3(CNC3)CN2C(=O)CNC(=O)CCCOc2ccccc2)c1` [Compound 273, (S)—N-((4-carbamimidoylthiophen-2-yl)methyl)-6-((4-phenoxybutanoyl)glycyl)-2,6-diazaspiro[3.4]octane-7-carboxamide], the IC50 was below 100 nM.

`C[C@@H](NC(=O)[C@@H]1C[C@]2(Cn3ccnn3)C[C@@H]2N1C(=O)CNC(=O)c1ccc2c(c1)-c1ccccc1C2(F)F)c1cc(C(=N)N)cs1` [Compound 274, (1S,3S,5S)-5-((1H-1,2,3-triazol-1-yl)methyl)-N—((R)-1-(4-carbamimidoylthiophen-2-yl)ethyl)-2-((9,9-difluoro-9H-fluorene-3-carbonyl)glycyl)-2-azabicyclo[3.1.0]hexane-3-carboxamide]: the IC50 was below 100 nM.

In the case of `C[C@@H](NC(=O)[C@@H]1C[C@]2(C)C[C@@H]2N1C(=O)CNC(=O)c1ccc(Oc2ccccc2)cc1)c1cc(CC(=N)N)cs1` [Compound 276, (1S,3S,5S)—N—((R)-1-(4-(2-amino-2-iminoethyl)thiophen-2-yl)ethyl)-5-methyl-2-((4-phenoxybenzoyl)glycyl)-2-azabicyclo[3.1.0]hexane-3-carboxamide], the IC50 is below 100 nM. As for `COC1c2ccccc2-c2cc(C(=O)NCC(=O)N3CC4(C[C@H]3C(=O)N[C@H](C)c3cc(C(=N)N)cs3)OCCO4)ccc21` (stereo partly drawn) [Compound 277, (8S)—N—((R)-1-(4-carbamimidoylthiophen-2-yl)ethyl)-7-((9-methoxy-9H-fluorene-3-carbonyl)glycyl)-1,4-dioxa-7-azaspiro[4.4]nonane-8-carboxamide], the figure is below 100 nM; as for `CO[C@@H]1C[C@@H](C(=O)N[C@H](C)c2cc(C(=N)N)cs2)N(C(=O)CNC(=O)c2ccc3cc4ccccc4cc3c2)C1` [Compound 278, (2S,4R)-1-((anthracene-2-carbonyl)glycyl)-N—((R)-1-(4-carbamimidoylthiophen-2-yl)ethyl)-4-methoxypyrrolidine-2-carboxamide], below 100 nM. As to `C[C@@H](NC(=O)[C@@H]1CC2(CN1C(=O)CNC(=O)c1ccc3c(c1)oc1ccccc13)OCCO2)c1cc(C(=N)N)cs1` [Compound 279, (S)—N—((R)-1-(4-carbamimidoylthiophen-2-yl)ethyl)-7-((dibenzo[b,d]furan-3-carbonyl)glycyl)-1,4-dioxa-7-azaspiro[4.4]nonane-8-carboxamide], the IC50 was below 100 nM. As for `CC(C)S(=O)(=O)[C@@H]1C[C@@H](C(=O)N[C@H](C)c2cc(C(=N)N)cs2)N(C(=O)CNC(=O)c2ccc3c(c2)-c2ccccc2C3(F)F)C1` [Compound 280, (2S,4R)—N—((R)-1-(4-carbamimidoylthiophen-2-yl)ethyl)-1-((9,9-difluoro-9H-fluorene-3-carbonyl)glycyl)-4-(isopropylsulfonyl)pyrrolidine-2-carboxamide], the figure is below 100 nM. Take `C[C@@H](NC(=O)[C@@H]1C[C@]2(Cn3cncn3)C[C@@H]2N1C(=O)CNC(=O)c1ccc2c(c1)-c1ccccc1C2(F)F)c1cc(C(=N)N)cs1` [Compound 281, (1S,3S,5S)-5-((1H-1,2,4-triazol-1-yl)methyl)-N—((R)-1-(4-carbamimidoylthiophen-2-yl)ethyl)-2-((9,9-difluoro-9H-fluorene-3-carbonyl)glycyl)-2-azabicyclo[3.1.0]hexane-3-carboxamide]: the half-inhibitory concentration (IC50) was below 100 nM.

As for `O=C(NCC(=O)N1CC2(C[C@H]1C(=O)NCc1cc(Nc3nccs3)cs1)OCCO2)c1ccc(Oc2ccc(F)cc2)cc1` [Compound 282, (S)-7-((4-(4-fluorophenoxy)benzoyl)glycyl)-N-((4-(thiazol-2-ylamino)thiophen-2-yl)methyl)-1,4-dioxa-7-azaspiro[4.4]nonane-8-carboxamide], the IC50 was above 1000 nM. Take `O=C(NCC(=O)N1CC2(C[C@H]1C(=O)NCc1cc(Nc3ncc[nH]3)cs1)OCCO2)c1ccc(Oc2ccc(F)cc2)cc1` [Compound 283, (S)-N-((4-((1H-imidazol-2-yl)amino)thiophen-2-yl)methyl)-7-((4-(4-fluorophenoxy)benzoyl)glycyl)-1,4-dioxa-7-azaspiro[4.4]nonane-8-carboxamide]: the IC50 is above 1000 nM. As for `O=C(NCC(=O)N1CC2(C[C@H]1C(=O)NCc1cc(NC3=NCCS3)cs1)OCCO2)c1ccc(Oc2ccc(F)cc2)cc1` [Compound 284, (S)-N-((4-((4,5-dihydrothiazol-2-yl)amino)thiophen-2-yl)methyl)-7-((4-(4-fluorophenoxy)benzoyl)glycyl)-1,4-dioxa-7-azaspiro[4.4]nonane-8-carboxamide], the figure is above 1000 nM; as for `Nc1cccc(Nc2csc(CNC(=O)[C@@H]3CC4(CN3C(=O)CNC(=O)c3ccc(Oc5ccc(F)cc5)cc3)OCCO4)c2)n1` [Compound 285, (S)-N-((4-((6-aminopyridin-2-yl)amino)thiophen-2-yl)methyl)-7-((4-(4-fluorophenoxy)benzoyl)glycyl)-1,4-dioxa-7-azaspiro[4.4]nonane-8-carboxamide], above 1000 nM. `CS(=O)(=O)N(c1csc(CNC(=O)[C@@H]2CC3(CN2C(=O)CNC(=O)c2ccc(Oc4ccc(F)cc4)cc2)OCCO3)c1)S(C)(=O)=O` [Compound 286, (S)-7-((4-(4-fluorophenoxy)benzoyl)glycyl)-N-((4-((N-(methylsulfonyl)methyl)sulfonamido)thiophen-2-yl)methyl)-1,4-dioxa-7-azaspiro[4.4]nonane-8-carboxamide]: the 50% inhibitory concentration (IC50) is above 1000 nM.

In the case of `N=C(N)c1csc(CNC(=O)[C@@H]2CC3(CN2C(=O)CN2Cc4ccc(-c5ccc(F)cc5F)cc4C2)OCCO3)c1` [Compound 287, (S)—N-((4-carbamimidoylthiophen-2-yl)methyl)-7-(2-(5-(2,4-difluorophenyl)isoindolin-2-yl)acetyl)-1,4-dioxa-7-azaspiro[4.4]nonane-8-carboxamide], the concentration for half-maximal inhibition (IC50) is below 100 nM. Consider `CC(=O)Nc1csc(CNC(=O)[C@@H]2CC3(CN2C(=O)CNC(=O)c2ccc(Oc4ccc(F)cc4)cc2)OCCO3)c1` [Compound 288, (S)-N-((4-acetamidothiophen-2-yl)methyl)-7-((4-(4-fluorophenoxy)benzoyl)glycyl)-1,4-dioxa-7-azaspiro[4.4]nonane-8-carboxamide], for which the 50% inhibitory concentration (IC50) is above 1000 nM. For `O=C(NCC(=O)N1CC2(C[C@H]1C(=O)NCc1cc(N3CCCC3)cs1)OCCO2)c1ccc(Oc2ccc(F)cc2)cc1` [Compound 289, (S)-7-((4-(4-fluorophenoxy)benzoyl)glycyl)-N-((4-(pyrrolidin-1-yl)thiophen-2-yl)methyl)-1,4-dioxa-7-azaspiro[4.4]nonane-8-carboxamide], the IC50 lay in the range of 100 to 1000 nM. As for `C[C@H](NC(=O)c1ccc(-c2ccc(F)cc2F)cc1)C(=O)N1CC2(C[C@H]1C(=O)NCc1cc(C(=N)N)cs1)OCCO2` [Compound 291, (S)—N-((4-carbamimidoylthiophen-2-yl)methyl)-7-((2′,4′-difluoro-[1,1′-biphenyl]-4-carbonyl)-L-alanyl)-1,4-dioxa-7-azaspiro[4.4]nonane-8-carboxamide], the figure is below 100 nM; as for `C[C@@H](NC(=O)[C@@H]1C[C@](F)(CO)CN1C(=O)CNC(=O)c1ccc2c(c1)-c1ccccc1C2(F)F)c1cc(C(=N)N)cs1` [Compound 292, (2S,4R)—N—((R)-1-(4-carbamimidoylthiophen-2-yl)ethyl)-1-((9,9-difluoro-9H-fluorene-3-carbonyl)glycyl)-4-fluoro-4-(hydroxymethyl)pyrrolidine-2-carboxamide], below 100 nM. As for `C[C@@]12C[C@@H]1N(C(=O)CNC(=O)c1ccc(Oc3ccccc3)cc1)[C@H](C(=O)NCc1cc3c(s1)C(N)=NCC3)C2` [Compound 293, (1S,3S,5S)—N-((7-amino-4,5-dihydrothieno[2,3-c]pyridin-2-yl)methyl)-5-methyl-2-((4-phenoxybenzoyl)glycyl)-2-azabicyclo[3.1.0]hexane-3-carboxamide], the half-inhibitory concentration (IC50) lay in the range of 100 to 1000 nM.

Consider `C[C@@H](NC(=O)[C@@H]1CC2(CN1C(=O)CNC(=O)c1ccc3c(c1)Oc1ccccc1N3)OCCO2)c1cc(C(=N)N)cs1` [Compound 294, N-(2-((S)-8-(((R)-1-(4-carbamimidoylthiophen-2-yl)ethyl)carbamoyl)-1,4-dioxa-7-azaspiro[4.4]nonan-7-yl)-2-oxoethyl)-10H-phenoxazine-3-carboxamide], for which the 50% inhibitory concentration (IC50) is below 100 nM.

For `C[C@H](NC(=O)c1ccc(-c2ccc(F)cc2)cc1)C(=O)N1CC2(C[C@H]1C(=O)NCc1cc(C(=N)N)cs1)OCCO2` [Compound 296, (S)—N-((4-carbamimidoylthiophen-2-yl)methyl)-7-((4′-fluoro-[1,1′-biphenyl]-4-carbonyl)-L-alanyl)-1,4-dioxa-7-azaspiro[4.4]nonane-8-carboxamide], the concentration for half-maximal inhibition (IC50) was below 100 nM. As for `N=C(N)c1csc(CNC(=O)[C@@H]2CC3(CN2C(=O)CNC(=O)c2ccc(-c4ccccc4)o2)OCCO3)c1` [Compound 297, (S)—N-((4-carbamimidoylthiophen-2-yl)methyl)-7-((5-phenylfuran-2-carbonyl)glycyl)-1,4-dioxa-7-azaspiro[4.4]nonane-8-carboxamide], the concentration for half-maximal inhibition (IC50) is below 100 nM. To `N=C(N)c1csc(CNC(=O)[C@@H]2CC3(CN2C(=O)CNC(=O)c2ccc(-c4ccc(F)cc4F)o2)OCCO3)c1` [Compound 298, (S)—N-((4-carbamimidoylthiophen-2-yl)methyl)-7-((5-(2,4-difluorophenyl)furan-2-carbonyl)glycyl)-1,4-dioxa-7-azaspiro[4.4]nonane-8-carboxamide] belongs below 100 nM.

Values taken from patent publication US20250346585A1 (Alexion Pharmaceuticals, Inc., priority 2022, published 2025).
